Experimental data reported in patent publication US5464865A, “4-aryl- and 4-arylthio-5-hydroxy-2(5H)-furanones as inhibitors of phospholipase A2” (Ortho Pharmaceutical Corporation, priority 1993, dated 1995).

Molecular target: T1, human platelet phospholipase A2 (Homo sapiens, UniProt P14555)
T1 construct: a preparation of human platelet phospholipase A2; from tissue; host or cells: human platelets
T1 sequence (P14555 21-144): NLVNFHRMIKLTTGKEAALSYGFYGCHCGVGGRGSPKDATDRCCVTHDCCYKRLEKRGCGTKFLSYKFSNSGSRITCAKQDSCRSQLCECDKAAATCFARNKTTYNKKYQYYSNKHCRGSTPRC
Experiment: Inhibition of human platelet phospholipase A2 (14C-oleate E. coli substrate)
Format: biochemical
Details: for inhibition at 10 µM: @ 10 μM (values marked *), read-out: Inhibition of PLA2, % Inhibition @ *10 μM; for IC50: pH 7.0, 37°, 60 min incubation, read-out: Inhibition of PLA2, IC50; for inhibition at 50 µM: read-out: Inhibition of PLA2, % Inhibition @ 50 μM
Experimental: The activity of the compounds of the invention against phospholipase A2 is determined using a preparation of human platelet phospholipase A2 with a specific activity of 180 nmol/min/mg as the enzyme source. Polypropylene 15-ml test tubes are utilized as the reaction vessels. All drug samples are run in duplicate, with "blank" and "control" (no test compound) groups run in triplicate. […] Test compounds are dissolved in DMSO, and diluted to a projected final concentration of either 50 or 10 μM in 550 μl HEPES buffer at pH 7.0. A 1:7 dilution of human platelet PLA2 in HEPES buffer (5 μl) is added to each test tube, followed by gentle vortexing for 3 seconds. The reaction tubes containing drug, buffer, and enzyme are preincubated for 15 min at 37°, followed by the addition of 25 μl of ^14 C-oleate E. coli substrate. Details regarding this substrate may be found in a publication by S. Ghosh and R. Franson, Biochem. Cell. Biol., 70, 43 (1992), and references therein.
The tubes are immediately vortexed at moderate speed for 3 sec, followed by a 60 min incubation at 37° in a shaking water bath. The reaction is stopped by the addition of 3 ml of a 1:2 chloroform-methanol mixture. Additional water (1.5 ml) and chloroform (1.0 ml) are added, followed by vortexing. The lower phase is removed with a polypropylene transfer pipette, and transferred to a 13×100 mm polypropylene test tube. The organic solvent is evaporated with a stream of nitrogen, the residue is redissolved in 30 μl of a 9:1 chloroform-methanol mixture, and the solution is spotted on a channeled polyester-backed silica gel TLC plate, such as those available under the trade name PE SIL G available from Whatman Inc, Clifton, N.J.
The plate is developed with an 80:20:1 mixture of petroleum ether-diethyl ether-acetic acid. […] The plate is scored above the origin, cut along the score with scissors, and the reactant (origin) and product portions of each channel are put into separate scintillation vials. To each vial is added a scintillation cocktail (15 ml), preferably that sold under the trademark ECOLUME by ICN Biomedicals, Irvine Calif. The vials are shaken vigorously for 5 sec, and the radioactive ^14 C in each vial is measured with a scintillation counter, which provides the counts-per-minute (cpm) for each sample. The obtained cpm values are corrected for the "blank" values.
The percentage of phospholipid hydrolyzed is calculated by the formula:
Phospholipid converted=100×cpm products / (cpm products+cpm
The inhibition of phospholipase A2 by the test compounds is expressed as a percent inhibition relative to the control group:
% Inhibition=[…]

Row | Compound | inhibition at 10 µM | IC50 | inhibition at 50 µM
1 | CCCCCCCCOc1ccc(C2=CC(=O)OC2O)cc1Cl (centres unmarked) [Example 4, 5-Hydroxy-4-(3-chloro-4-octyloxyphenyl)-2(5H)furanone] | 71% | 5.4 µM | 
2 | CCCCSc1ccc(C2=CC(=O)OC2O)cc1 (centres unmarked) [Example 24, 5-Hydroxy-4-(4-(butylthio)phenyl)-2(5H)furanone] |  |  | 0%
3 | CCCCCCCCOc1ccc(C2=CC(=O)OC2O)cc1NC(C)=O (centres unmarked) [Example 9, 5-Hydroxy-4-(3-acetamido-4-octyloxyphenyl)-2(5H)furanone] | 7% |  | 
4 | O=C1C=C(c2ccc(C(=O)c3ccc4ccccc4c3)cc2)C(O)O1 (centres unmarked) [Example 29, 5-Hydroxy-4-(4-(2-naphthoyl)phenyl)-2(5H)-furanone] |  | 50 µM | 59%
5 | CC(C)c1cc(C2=CC(=O)OC2O)cc(C(C)C)c1O (centres unmarked) [Example 47, 5-Hydroxy-4-(3,5-bis(1-methylethyl)-4-hydroxyphenyl)-2(5H)-furanone] | 2% |  | 
6 | CCCCCCCCOc1ccc(C2=CC(=O)OC2O)cc1OC (centres unmarked) [Example 6, 5-Hydroxy-4-(3-methoxy-4-octyloxyphenyl)-2(5H)furanone] | 27% |  | 
7 | CC1=C(C/C=C(\C)CCCOc2ccc(C3=CC(=O)OC3O)cc2)C(C)(C)CCC1 (centres unmarked) [Example 26, (E)-5-Hydroxy-4-(4-(4-methyl-6-(2,6,6-trimethyl-1-cyclohexen-1-yl)-4-hexenyloxy)phenyl)-2(5H)-furanone] | 92% |  | 
8 | COc1ccc(CCNC(=O)c2ccc(C3=CC(=O)OC3O)cc2)cc1OC (centres unmarked) [Example 48, 5-Hydroxy-4-(4-((2-(3,4-dimethoxyphenyl)ethyl)aminocarbonyl)phenyl)-2(5H)-furanone] |  |  | 0%
9 | CCCCCCCCOc1ccc(C2=CC(=O)OC2O)cc1[N+](=O)[O-] (centres unmarked) [Example 7, 5-Hydroxy-4-(3-nitro-4-octyloxyphenyl)-2(5H)furanone] | 67% | 9.4 µM | 
10 | CCCCCCCCOc1ccc(C2=CC(=O)OC2O)c(Cl)c1 (centres unmarked) [Example 2, 5-Hydroxy-4-(2-chloro-4-octyloxyphenyl)-2(5H)furanone] | 69% | 7.5 µM | 
11 | C=CCOc1cccc(C2=CC(=O)OC2O)c1 (centres unmarked) [Example 11, 5-Hydroxy-4-[(3-allyloxy)phenyl]-2(5H)furanone] |  |  | 0%
12 | CCCCCCCC(=O)c1ccc(C2=CC(=O)OC2O)cc1 (centres unmarked) [Example 32, 5-Hydroxy-4-(4-octanoylphenyl)-2(5H)-furanone] |  |  | 55%
13 | O=C1C=C(c2ccc(C(=O)c3ccccc3F)cc2)C(O)O1 (centres unmarked) [Example 31, 5-Hydroxy-4-(4-(2-fluorobenzoyl)phenyl)-2(5H)-furanone] |  |  | 6%
14 | CCCCCCCCOc1ccccc1C1=CC(=O)OC1O (centres unmarked) [Example 8, 5-Hydroxy-4-(2-octyloxyphenyl)-2(5H)furanone] | 21% |  | 
15 | CCCCCCCC(=O)Nc1cccc(C2=CC(=O)OC2O)c1 (centres unmarked) [Example 20, 5-Hydroxy-4-(3-(1-oxooctylamino)phenyl)-2(5H)furanone] |  |  | 0%
16 | CCCCCCCCS(=O)(=O)c1ccc(C2=CC(=O)OC2O)cc1 (centres unmarked) [Example 22, 5-Hydroxy-4-(4-octylsulfonyl)phenyl-2(5H)furanone] | 49% |  | 
17 | O=C1C=C(c2ccc(OS(=O)(=O)C(F)(F)F)cc2)C(O)O1 (centres unmarked) [Example 46, 5-Hydroxy-4-(4-(trifluoromethanesulfonoxy)phenyl)-2(5H)-furanone] |  |  | 0%
18 | O=C1C=C(c2ccc(/C=C\c3ccccc3)cc2)C(O)O1 (single isomer, unassigned) [Example 33, (Z)-5-Hydroxy-4-(4-(2-phenylethenyl)phenyl)-2(5H)-furanone] |  |  | 23%
19 | O=C1C=C(c2ccc(OCCCc3ccccc3)cc2)C(O)O1 (centres unmarked) [Example 10, 5-Hydroxy-4-[4-(3-phenylpropyloxy)phenyl]-2(5H)furanone] |  |  | 17%

Next, values leading:

Row | inhibition at 10 µM | IC50 | inhibition at 50 µM | Compound
20 |  |  | 59% | O=C1C=C(c2ccc(C#Cc3ccc4ccccc4c3)cc2)C(O)O1 (centres unmarked) [Example 56, 5-Hydroxy-4-(4-(2-(2-naphthyl)ethynyl)phenyl)-2(5H)-furanone]
21 | 6% |  |  | O=C1C=C(c2ccc(C#Cc3cccc([N+](=O)[O-])c3)cc2)C(O)O1 (centres unmarked) [Example 59, 5-Hydroxy-4-(4-(2-(3-nitrophenyl)ethynyl)phenyl)-2(5H)-furanone]
22 |  | 8.4 µM | 69% | O=C1C=C(c2ccc(C#Cc3cccc4ccccc34)cc2)C(O)O1 (centres unmarked) [Example 57, 5-Hydroxy-4-(4-(2-(1-naphthyl)ethynyl)phenyl)-2(5H)-furanone]
23 |  |  | 70% | CCCCCCCCSc1nc(C2=CC(=O)OC2O)cs1 (centres unmarked) [Example 70, 5-Hydroxy-4-(2-(octylthio)-4-thiazolyl)-2(5H)-furanone]
24 | 24% |  |  | O=C1C=C(c2ccc(C#Cc3ccc(C(F)(F)F)cc3)cc2)C(O)O1 (centres unmarked) [Example 58, 5-Hydroxy-4-(4-(2-(4-(trifluoromethyl)phenyl)ethynyl)phenyl)-2(5H)-furanone]
25 |  | 42 µM | 53% | CC(C)(C)C#Cc1ccc(C2=CC(=O)OC2O)cc1 (centres unmarked) [Example 53, 5-Hydroxy-4-(4-(3,3-dimethyl-1-butynyl)phenyl)-2(5H)-furanone]
26 |  | 0.5 µM | 98% | CC1=C(C/C=C(\C)COc2ccc(SC3=CC(=O)OC3O)cc2)C(C)(C)CCC1 (centres unmarked) [Example 67, (E)-5-Hydroxy-4-(4-(2-methyl-4-(2,6,6-trimethyl-1-cyclohexen-1-yl)-2-butenyloxy)phenylthio)-2(5H)-furanone]
27 | 98% |  |  | CCCCCCCCCCCCCOc1ccc(SC2=CC(=O)OC2O)cc1 (centres unmarked) [Example 65, 5-Hydroxy-4-(4-(tridecyloxy)phenylthio)-2(5H)-furanone]
28 |  |  | 33% | COc1ccc(C#Cc2ccc(C3=CC(=O)OC3O)cc2)cc1 (centres unmarked) [Example 61, 5-Hydroxy-4-(4-(2-(4-methoxyphenyl)ethynyl)phenyl)-2(5H)-furanone]
29 |  | 50 µM | 51% | O=C1C=C(c2ccc(COc3ccc4ccccc4c3)cc2)C(O)O1 (centres unmarked) [Example 52, 5-Hydroxy-4-(4-(2-naphthyloxymethyl)phenyl)-2(5H)-furanone]
30 | 11% |  |  | O=C1C=C(c2ccc(C#Cc3ccc([N+](=O)[O-])cc3)cc2)C(O)O1 (centres unmarked) [Example 60, 5-Hydroxy-4-(4-(2-(4-nitrophenyl)ethynyl)phenyl)-2(5H)-furanone]
31 | 33% |  |  | O=C1C=C(c2ccc(C#Cc3cc4ccccc4s3)cc2)C(O)O1 (centres unmarked) [Example 62]
32 |  |  | 5% | O=C1C=C(c2ccc(Cc3ccccc3)cc2)C(O)O1 (centres unmarked) [Example 49, 5-Hydroxy-4-(4-(phenylmethyl)phenyl)-2(5H)-furanone]
33 |  |  | 52% | CCCCCCCCOc1ccc(C2=CC(=O)OC2O)cn1 (centres unmarked) [Example 69, 5-Hydroxy-4-(6-octyloxy-3-pyridyl)-2(5H)-furanone]
34 |  |  | 30% | O=C1C=C(c2ccc(CC(O)COc3ccc4ccccc4c3)cc2)C(O)O1 (racemic) [Example 51, 5-Hydroxy-4-(4-(2-hydroxy-3-(2-naphthyloxy)propyl)phenyl)-2(5H)-furanone]
35 |  |  | 0% | O=C1C=C(Sc2ccc(Br)cc2)C(O)O1 (centres unmarked) [Example 68, 5-Hydroxy-4-((4-bromophenyl)thio)-2(5H)-furanone]
36 | 45% |  |  | O=C1C=C(c2cccc(C#Cc3ccccc3)c2)C(O)O1 (centres unmarked) [Example 63, 5-Hydroxy-4-(3-(2-phenylethynyl)phenyl)-2(5H)-furanone]
